Values quoted from earlier work, collected in patent US7238375B1, “Composition and method to promote human hair growth” (priority 2004, dated 2007).

Assays:
Type 1 5-alpha-reductase = target: T1, Type 1 5-alpha-reductase (Homo sapiens, UniProt P18405); settings: application of copper ion to skin
T1 sequence (P18405 1-259): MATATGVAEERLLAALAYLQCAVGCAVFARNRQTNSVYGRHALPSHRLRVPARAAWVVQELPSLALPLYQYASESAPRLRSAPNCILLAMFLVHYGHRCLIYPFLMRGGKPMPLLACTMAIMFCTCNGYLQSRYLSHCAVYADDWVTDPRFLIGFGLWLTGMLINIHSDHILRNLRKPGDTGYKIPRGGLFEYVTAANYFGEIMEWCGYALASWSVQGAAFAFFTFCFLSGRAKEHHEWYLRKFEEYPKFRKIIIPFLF

Type 2 5-alpha-reductase = target: T2, Type 2 5-alpha-reductase (Homo sapiens, UniProt P31213); settings: application of copper ion to skin
T2 sequence (P31213 1-254): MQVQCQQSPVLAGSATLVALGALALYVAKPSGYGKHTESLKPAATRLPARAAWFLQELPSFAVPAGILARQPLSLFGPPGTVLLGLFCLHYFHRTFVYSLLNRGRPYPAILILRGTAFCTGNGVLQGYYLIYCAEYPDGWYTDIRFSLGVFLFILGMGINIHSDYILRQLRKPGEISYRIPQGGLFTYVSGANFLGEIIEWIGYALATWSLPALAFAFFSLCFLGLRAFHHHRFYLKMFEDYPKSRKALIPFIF

sheep = settings: supplement in the diet of sheep

Structure (SMILES) | concentration giving 50% reduction in activity of Type 1 5-alpha-reductase (Type 1 5-alpha-reductase) | IC50 (Type 1 5-alpha-reductase; read-out: concentration giving 50% reduction in activity of Type 1 5-alpha-reductase) [µM] | concentration giving 50% reduction in activity of Type 2 5-alpha-reductase (Type 2 5-alpha-reductase) | IC50 (Type 2 5-alpha-reductase; read-out: concentration giving 50% reduction in activity of Type 2 5-alpha-reductase) [µM] | effect on wool growth patterns (sheep) | effect on hair shafts (rats)
[Cu+2] [Copper ion] | 0.12 micrograms copper ion per milliliter | 1.9 | 1.2 micrograms copper ion per milliliter | 10.2 |  | 
N[C@@H](CS)C(=O)O [Cysteine] |  |  |  |  | significant modification in wool growth patterns | thicker hair shafts
